This test concerns MDA-MB-231 (Homo sapiens). As to the kind of experiment: Induction of apoptosis in human MDA-MB-231 cells assessed as induction of caspase 8 activation at 36 uM after 72 hrs by colorimetric assay relative to control.

For the compound `Nc1ccccc1C#C/C=C\C#Cc1ccccc1C(F)(F)F`, the “fold change (FC)” value came out at 4.

Source of the values: ChEMBL document CHEMBL1149910, “2-(6-aryl-3(Z)-hexen-1,5-diynyl)anilines as a new class of potent antitubulin agents” (J Med Chem, 2008).
